4 compounds from ChEMBL document CHEMBL3046460, “Preparation of Dinotefuran Related Compounds and Agonistic Action on SAD2 Hybrid Nicotinic Acetylcholine Receptors Expressed in Xenopus laevis Oocytes” (J Pestic Sci, 2002) can be followed below.

This assay in a line: Agonist activity at Drosophila melanogaster SAD/chicken beta2 nAChR expressed in Xenopus laevis oocytes assessed as inward current by two-electrode voltageclamp technique. It is filed as cell-based. For orientation: Two-electrode voltage clamp holds a large cell at a set potential and records current.
The term EC50 denotes the midpoint of the concentration-response curve. As for `O=[N+]([O-])/N=C1\NCCN1CC1CCOC1` (centres undefined), the EC50 was 148 µM.
Then `CC(=O)OCC[N+](C)(C)C` [ACETYLCHOLINE], with 20 µM.
Then `CN/C(=N/CC1CCOC1)N[N+](=O)[O-]` (centres undefined) [DINOTEFURAN], with 224 µM; and `O=[N+]([O-])/N=C1\NCCN1Cc1ccc(Cl)nc1` [IMIDACLOPRID], with 2.82 µM.
